# Test results reported in patent publication US6838477B2, “Lactacystin analogs” (President and Fellows of Harvard College, priority 1995, dated 2005).
# Assays:
# Papain = biological target: T1, Papain (Carica papaya, UniProt P00784); experiment: Selectivity of protease inhibition: papain; assay type: biochemical; settings: concentration not given
# T1 sequence (P00784 134-345): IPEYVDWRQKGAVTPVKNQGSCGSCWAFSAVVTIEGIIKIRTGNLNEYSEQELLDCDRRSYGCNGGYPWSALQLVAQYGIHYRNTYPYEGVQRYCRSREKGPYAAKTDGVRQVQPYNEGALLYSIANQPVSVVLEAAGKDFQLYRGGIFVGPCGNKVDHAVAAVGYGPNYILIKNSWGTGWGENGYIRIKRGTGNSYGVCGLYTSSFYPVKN
# IκB-α = experiment: TNF-α dependent degradation of IκB-α in Hela cells (immunoblot); assay type: cell-based, human; settings: 5 μM, 1 h pretreatment, 1,000 U/ml TNF-α
# Method: Hela cells were plated onto 6-well plates in DME plus 10% fetal calf serum (3 mls/well). Cells were then pretreated with 0.125% DMSO 40 μM […] (carbobenzoxyl-leucinyl-leucinyl-leucinal-H)(40 μM, lanes 103), or 5 μM β-lactone for one hour, followed by treatment with 1,000 U/ml TNF-α or phosphate buffered saline (PBS). Cells were harvested after 0 min, 20 min, or 40 min of further incubation at 37° C. Cells were then lysed in buffer containing NP-40 and protease inhibitors, and the proteins separated on a 10% SDS-polyacrylamide gel. The proteins were then transferred to nitrocellulose and probed with antibodies against the C-terminal 20 amino acids of human IκB-α.
# [1] = biological target: 20S proteasome peptidylglutamyl-peptide hydrolyzing activity (Bos taurus, UniProt Q3MHN0)
# Method: Experiments involving the proteasome were performed as follows: 20S proteasome (˜5 ng/μl) in 10 mM Tris-HCl, pH 7.5, 1 mM EDTA was incubated at 25° C. in the presence of lactacystin or lactacystin analogs in DMSO or MeOH [not exceeding 5% (v/v)]. Aliquots for fluorescence assay were removed at various times following addition of compound and diluted in 10 mM Tris-HCl, pH 7.5, 1 mM EDTA containing fluorogenic peptide substrates (100 μM final). Suc-LLVY-AMC, Cbz-GGR-βNA and […] (AMC=7-amido-4-methylcoumarin; βNA=β-naphthylamide) were used to assay for the chymotrypsin-like, trypsin-like and peptidylglutamyl-peptide hydrolyzing activities, respectively.
# Fluorescent emission at 460 nm with excitation at 380 nm was measured for AMC-containing substrates, and emission at 410 nm with excitation at 335 nm was measured for βNA-containing substrates. The fluorescence assays were conducted at 25° C., each experiment was performed at least three times, and values represent mean±standard deviation.
# The reversibility of the inhibitory effects was assessed by measuring residual peptidase activity after removal of excess inhibitor by extensive serial dilution/ultrafiltration.
# Calpain I = biological target: T2, Calpain I (Homo sapiens, UniProt P07384); experiment: Selectivity of protease inhibition: calpain I; assay type: biochemical; settings: concentration not given
# T2 sequence (P07384 1-714): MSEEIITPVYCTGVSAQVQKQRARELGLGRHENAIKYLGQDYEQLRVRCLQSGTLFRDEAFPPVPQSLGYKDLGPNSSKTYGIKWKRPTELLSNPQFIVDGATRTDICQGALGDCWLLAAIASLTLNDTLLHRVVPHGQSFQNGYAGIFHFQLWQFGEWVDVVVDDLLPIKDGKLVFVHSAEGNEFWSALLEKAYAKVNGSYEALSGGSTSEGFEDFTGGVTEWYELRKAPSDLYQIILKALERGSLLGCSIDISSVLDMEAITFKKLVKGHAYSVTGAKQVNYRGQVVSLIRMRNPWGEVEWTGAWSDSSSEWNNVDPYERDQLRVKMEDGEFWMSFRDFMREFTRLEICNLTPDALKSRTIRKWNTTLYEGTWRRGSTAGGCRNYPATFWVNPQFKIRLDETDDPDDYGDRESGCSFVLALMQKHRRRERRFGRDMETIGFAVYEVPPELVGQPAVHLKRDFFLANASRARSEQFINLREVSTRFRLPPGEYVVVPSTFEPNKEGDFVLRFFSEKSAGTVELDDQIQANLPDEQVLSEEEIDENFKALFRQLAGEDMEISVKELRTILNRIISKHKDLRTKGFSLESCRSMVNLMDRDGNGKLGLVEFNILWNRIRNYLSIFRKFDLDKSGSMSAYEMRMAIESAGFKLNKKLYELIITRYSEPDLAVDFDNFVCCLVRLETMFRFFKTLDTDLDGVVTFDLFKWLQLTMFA
# T2 sequence (P04632 1-268 partner): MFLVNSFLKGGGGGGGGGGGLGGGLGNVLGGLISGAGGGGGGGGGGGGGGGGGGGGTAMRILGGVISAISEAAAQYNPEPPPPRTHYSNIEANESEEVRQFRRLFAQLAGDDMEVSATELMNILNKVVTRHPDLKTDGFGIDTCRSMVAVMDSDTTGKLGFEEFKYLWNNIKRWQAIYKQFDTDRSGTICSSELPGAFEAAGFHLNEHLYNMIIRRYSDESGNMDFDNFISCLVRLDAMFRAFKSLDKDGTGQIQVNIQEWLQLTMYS
compound,measurement,setting,value
"CC(C)[C@H](O)[C@@]12NC(=O)[C@H](C)[C@@H]1OC2=O [β-Lactone, clasto-lactacystin β-lactone]",inhibition of papain activity,Papain,do not inhibit
same,degradation of IκB after TNF induction,IκB-α,blocks degradation
same,phosphorylated form of IκB,IκB-α,stabilizes the phosphorylated form
same,"κassoc = κobs/[I], Peptidylglutamyl-peptide hydrolyzing activity (Cbz-LLE-βNA)","[1]; compound 50 μM, 25° C.",59 ± 17 s^−1M^−1
same,PGPH activity inhibited faster than by lactacystin,[1]; relative to lactacystin,15-20 times
same,reversibility of inhibition of PGPH activity,[1]; residual activity after removal of excess inhibitor by serial dilution/ultrafiltration,reversibly
same,inhibition of calpain I activity,Calpain I,do not inhibit
